Key:
Assay in all cases: relative viability (nuclei count vs DMSO), 5 days (fraction); higher = more cells survive
ChaGo-K-1 = test system: ChaGo-K-1
Summary of the method: (§1)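 Each reported value is a median over duplicate plates. It expresses relative viability: treated-well nuclei count divided by vehicle-well nuclei count. Lung cancer cell lines in 1536-well plates were dosed by pin tool a day after seeding, alone with one drug or with a fixed anchor-drug dose plus five library-drug doses (not always all listed) in √10 steps, and nuclei were counted after 5 days.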

EPLC-272H = test system: EPLC-272H
Summary of the method: as §1

H3255 = test system: H3255
Summary of the method: as §1

HCC-827 = test system: HCC-827
Summary of the method: as §1

HOP-62 = test system: HOP-62
Summary of the method: as §1

LCLC-97TM1 = test system: LCLC-97TM1
Summary of the method: as §1

LU99A = test system: LU99A
Summary of the method: as §1

LXF-289 = test system: LXF-289
Summary of the method: as §1

NCI-H1355 = test system: NCI-H1355
Summary of the method: as §1

NCI-H1650 = test system: NCI-H1650
Summary of the method: as §1

NCI-H1993 = test system: NCI-H1993
Summary of the method: as §1

NCI-H2228 = test system: NCI-H2228
Summary of the method: as §1

NCI-H2405 = test system: NCI-H2405
Summary of the method: as §1

NCI-H3122 = test system: NCI-H3122
Summary of the method: as §1

NCI-H441 = test system: NCI-H441
Summary of the method: as §1

PC-3 [JPC-3] = test system: PC-3 [JPC-3]
Summary of the method: as §1

SK-LU-1 = test system: SK-LU-1
Summary of the method: as §1

SW 1573 = test system: SW 1573
Summary of the method: as §1

UMC-11 = test system: UMC-11
Summary of the method: as §1

Cc1cn(-c2cc(NC(=O)c3ccc(C)c(Nc4nccc(-c5cccnc5)n4)c3)cc(C(F)(F)F)c2)cn1 [Nilotinib] + CC(C)C[C@H](NC(=O)[C@H](Cc1ccccc1)NC(=O)c1cnccn1)B(O)O [Bortezomib] (partner 0.002 µM)
relative viability (ChaGo-K-1; first compound 0.001 µM): 1.44
relative viability (ChaGo-K-1; first compound 0.003162 µM): 1.05
relative viability (ChaGo-K-1; first compound 0.01 µM): 1.14
relative viability (ChaGo-K-1; first compound 0.03162 µM): 0.639
relative viability (ChaGo-K-1; first compound 0.1 µM): 0.898
relative viability (EPLC-272H; first compound 0.001 µM): 1.06
relative viability (EPLC-272H; first compound 0.003162 µM): 1.21
relative viability (EPLC-272H; first compound 0.01 µM): 0.863
relative viability (EPLC-272H; first compound 0.03162 µM): 0.72
relative viability (EPLC-272H; first compound 0.1 µM): 0.429
relative viability (H3255; first compound 0.001 µM): 0.917
relative viability (H3255; first compound 0.003162 µM): 0.656
relative viability (H3255; first compound 0.01 µM): 0.986
relative viability (H3255; first compound 0.03162 µM): 0.787
relative viability (H3255; first compound 0.1 µM): 0.558
relative viability (HCC-827; first compound 0.003162 µM): 1.19
relative viability (HCC-827; first compound 0.01 µM): 1.08
relative viability (HCC-827; first compound 0.03162 µM): 1.07
relative viability (HCC-827; first compound 0.1 µM): 1.06
relative viability (HOP-62; first compound 0.001 µM): 0.706
relative viability (HOP-62; first compound 0.003162 µM): 0.861
relative viability (HOP-62; first compound 0.01 µM): 0.28
relative viability (HOP-62; first compound 0.03162 µM): 0.576
relative viability (LCLC-97TM1; first compound 0.001 µM): 0.454
relative viability (LCLC-97TM1; first compound 0.003162 µM): 0.158
relative viability (LCLC-97TM1; first compound 0.01 µM): 0.946
relative viability (LCLC-97TM1; first compound 0.03162 µM): 0.295
relative viability (LCLC-97TM1; first compound 0.1 µM): 0.511
relative viability (LU99A; first compound 0.001 µM): 0.891
relative viability (LU99A; first compound 0.003162 µM): 1.1
relative viability (LU99A; first compound 0.01 µM): 1.39
relative viability (LU99A; first compound 0.03162 µM): 1.19
relative viability (LU99A; first compound 0.1 µM): 0.371
relative viability (LXF-289; first compound 0.001 µM): 0.977
relative viability (LXF-289; first compound 0.003162 µM): 1.22
relative viability (LXF-289; first compound 0.01 µM): 1.11
relative viability (LXF-289; first compound 0.03162 µM): 0.977
relative viability (LXF-289; first compound 0.1 µM): 0.692
relative viability (NCI-H1355; first compound 0.001 µM): 1.09
relative viability (NCI-H1355; first compound 0.003162 µM): 1.52
relative viability (NCI-H1355; first compound 0.01 µM): 1.28
relative viability (NCI-H1355; first compound 0.03162 µM): 1.15
relative viability (NCI-H1355; first compound 0.1 µM): 0.639
relative viability (NCI-H1650; first compound 0.001 µM): 0.2
relative viability (NCI-H1650; first compound 0.003162 µM): 0.195
relative viability (NCI-H1650; first compound 0.01 µM): 0.18
relative viability (NCI-H1650; first compound 0.03162 µM): 0.196
relative viability (NCI-H1650; first compound 0.1 µM): 0.197
relative viability (NCI-H1993; first compound 0.001 µM): 1.11
relative viability (NCI-H1993; first compound 0.003162 µM): 0.878
relative viability (NCI-H1993; first compound 0.01 µM): 1.06
relative viability (NCI-H1993; first compound 0.03162 µM): 0.896
relative viability (NCI-H1993; first compound 0.1 µM): 0.953
relative viability (NCI-H2228; first compound 0.001 µM): 1.09
relative viability (NCI-H2228; first compound 0.003162 µM): 1.23
relative viability (NCI-H2228; first compound 0.01 µM): 1.21
relative viability (NCI-H2228; first compound 0.03162 µM): 0.641
relative viability (NCI-H2228; first compound 0.1 µM): 0.422
relative viability (NCI-H2405; first compound 0.001 µM): 0.995
relative viability (NCI-H2405; first compound 0.01 µM): 1.07
relative viability (NCI-H2405; first compound 0.03162 µM): 0.762
relative viability (NCI-H2405; first compound 0.1 µM): 0.553
relative viability (NCI-H3122; first compound 0.003162 µM): 1.05
relative viability (NCI-H3122; first compound 0.03162 µM): 1.03
relative viability (NCI-H3122; first compound 0.1 µM): 0.962
relative viability (NCI-H441; first compound 0.001 µM): 0.33
relative viability (NCI-H441; first compound 0.003162 µM): 0.735
relative viability (NCI-H441; first compound 0.01 µM): 0.492
relative viability (NCI-H441; first compound 0.1 µM): 0.219
relative viability (PC-3 [JPC-3]; first compound 0.001 µM): 0.848
relative viability (PC-3 [JPC-3]; first compound 0.003162 µM): 0.88
relative viability (PC-3 [JPC-3]; first compound 0.01 µM): 0.975
relative viability (PC-3 [JPC-3]; first compound 0.03162 µM): 0.707
relative viability (PC-3 [JPC-3]; first compound 0.1 µM): 0.46
relative viability (SK-LU-1; first compound 0.001 µM): 1.29
relative viability (SK-LU-1; first compound 0.01 µM): 0.831
relative viability (SK-LU-1; first compound 0.03162 µM): 1
relative viability (SK-LU-1; first compound 0.1 µM): 0.949
relative viability (SW 1573; first compound 0.001 µM): 1.02
relative viability (SW 1573; first compound 0.003162 µM): 1.4
relative viability (SW 1573; first compound 0.01 µM): 1.54
relative viability (SW 1573; first compound 0.03162 µM): 0.796
relative viability (SW 1573; first compound 0.1 µM): 1.09
relative viability (UMC-11; first compound 0.001 µM): 0.65
relative viability (UMC-11; first compound 0.003162 µM): 0.658
relative viability (UMC-11; first compound 0.01 µM): 0.806
relative viability (UMC-11; first compound 0.1 µM): 0.333
